# How the values were obtained:
# [1] = molecular target: T1, connexin45 (mCx45) hemichannel (Mus musculus, UniProt P28229); assay: ethidium uptake in HeLa-mCx45 cells, […] streptomycin; type: cell-based
# T1 construct: gene Gjc1; mouse Cx45 (NM_001159383.1) stably expressed in HeLa cells
# [2] = molecular target: T2, connexin43 (mCx43) hemichannel (Mus musculus, UniProt P23242); assay: ethidium uptake in HeLa-mCx43 cells, […] streptomycin; type: cell-based
# T2 construct: gene Gja1; mouse Cx43 (NM_010288.3) stably expressed in HeLa cells
# T2 sequence (P23242 2-382): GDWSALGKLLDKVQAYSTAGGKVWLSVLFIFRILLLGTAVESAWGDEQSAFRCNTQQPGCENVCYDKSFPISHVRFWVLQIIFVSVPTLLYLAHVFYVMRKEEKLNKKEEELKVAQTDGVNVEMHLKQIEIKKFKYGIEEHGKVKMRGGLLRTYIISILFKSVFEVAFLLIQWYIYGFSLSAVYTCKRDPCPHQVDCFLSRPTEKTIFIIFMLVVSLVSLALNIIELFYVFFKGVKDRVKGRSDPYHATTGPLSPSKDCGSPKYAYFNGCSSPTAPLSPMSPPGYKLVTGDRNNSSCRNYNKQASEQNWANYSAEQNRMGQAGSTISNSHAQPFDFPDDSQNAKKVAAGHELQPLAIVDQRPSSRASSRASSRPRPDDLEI
# T1 sequence (P28229 whole entry): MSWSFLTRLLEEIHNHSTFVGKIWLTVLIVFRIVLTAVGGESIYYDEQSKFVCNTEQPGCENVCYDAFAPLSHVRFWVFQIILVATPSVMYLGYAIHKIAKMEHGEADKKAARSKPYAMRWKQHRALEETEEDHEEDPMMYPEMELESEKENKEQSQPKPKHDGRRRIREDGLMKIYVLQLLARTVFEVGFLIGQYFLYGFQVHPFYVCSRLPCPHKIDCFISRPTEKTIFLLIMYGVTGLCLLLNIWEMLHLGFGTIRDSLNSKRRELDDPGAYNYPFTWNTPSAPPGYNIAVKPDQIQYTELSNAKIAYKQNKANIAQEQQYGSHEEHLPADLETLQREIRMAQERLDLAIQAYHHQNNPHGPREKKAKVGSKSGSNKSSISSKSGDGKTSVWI
smiles,measurement,setting,value
[H]/N=C(/N)N[C@H]1[C@H](O)[C@@H](O)[C@H](O[C@@H]2O[C@@H](C)[C@](O)(C=O)[C@H]2O[C@@H]2O[C@@H](CO)[C@H](O)[C@@H](O)[C@@H]2NC)[C@@H](N/C(N)=N\[H])[C@@H]1O [streptomycin],"ethidium uptake in HeLa-mCx45 cells, 200 μM streptomycin",[1],"In HeLa-mCx45 cells, Etd uptake was reduced to values below the ones recorded under control condition"
same,"ethidium uptake in HeLa-mCx43 cells, 200 μM streptomycin",[2],"also inhibited the Etd uptake of HeLa-rCx26 (Figures 2E,F), -mCx43 and -mCx45 cells in DCFS"

# From article PMC4154469, “Extracellular gentamicin reduces the activity of connexin hemichannels and interferes with purinergic Ca^2+ signaling in HeLa cells” (Frontiers in Cellular Neuroscience, 2014)
